Counter-ions that a name gives are not always drawn. Like-named read-outs stand apart in the source and are kept apart here.
How the values were obtained:
[1] = Acute toxicity in the rat (method of Litchfield and Wilcoxon); settings: in vivo, po
Text: (§1) In the following resuming table the results obtained for the esters of the Indomethacin are reported. In the determination of the acute toxicity, carried out in the rat, the method of Litchfield and Wilcoxon (J. Pharmacol. Exp. Therm., 96, 99, 1949) has been adopted.

[2] = Ulcerogenic activity / gastric tolerability, UD50 in fasted rats; type: in vivo, rat; settings: rat, in vivo, po
Text: (§2) The UD50 has been also calculated according to the aforesaid method of Litchfield and Wilcoxon.

[3] = Anti-inflammatory activity, carrageenin induced oedema (Winter et al.); type: in vivo, rat; settings: rat, in vivo; carrageenin 3 h; read-out: Therapeutical index LD50/ED50 (carrageenin 3h)
Text: (§3) As regards the anti-inflammatory activity, the ED50 in the normal rat has been evaluated according to Winter et al. (Proc. Soc. Exp. Biol. Med., 111, 544, 1962).

rat [4] = assay: as above; type: in vivo; settings: 3 h; for ED50: Rattus norvegicus, po, read-out: Carrageenin induced oedema (3 h) ED50; for Carrageenin induced oedema (3 h) ED50: 180 min
Text: as §3

[5] = Analgesic activity (method of Randall and Selitto); type: in vivo; settings: for selectivity ratio: in vivo, Randall-Selitto 3 h, read-out: Therapeutical index LD50/ED50 (Randall-Selitto 3h); for ED50: po, read-out: Randall-Selitto (3 h) ED50
Text: As regards the analgesic activity, the evaluation has been carried out according to the method of Randall and Selitto (Arch. Ing. Pharmacodyn., 111, 409, […]).

rat [6] = assay: Acute toxicity in the rat (method of Litchfield and Wilcoxon); settings: in vivo, po
Text: as §1

rat [7] = assay: Ulcerogenic activity / gastric tolerability, UD50 in fasted rats; type: in vivo; settings: for Gastric tolerability UD50 fasted 18 h / Gastric tolerability UD50 fasted 48 h: rat, in vivo, po
Text: as §2

[8] = Solubility of the product; type: physicochemical
[9] = UD50 18 h, Randall-Selitto 3 h, read-out: Tolerability index UD50 (18h)/ED50 (Randall-Selitto 3 H)
[10] = UD50 18 h, carrageenin 3 h, read-out: Tolerability index UD50 (18 h)/ED50 (carrageenin 3 h)
[11] = UD50 48 h, Randall-Selitto 3 h, read-out: Tolerability index UD50 (48 h)/ED50 (Randall-Selitto 3 h)
[12] = UD50 48 h, carrageenin 3 h, read-out: Tolerability index UD50 (48 h)/ED50 (carrageenin 3 h)

Compound	selectivity ratio [2, 9]	selectivity ratio [2, 10]	selectivity ratio [2, 11]	selectivity ratio [2, 12]	selectivity ratio [3]	selectivity ratio [5]	LD50, rat (rat [6])	Tolerability index UD50 (18h)/ED50 (Randall-Selitto 3 H) (rat [7]; UD50 18 h)	Tolerability index UD50 (48 h)/ED50 (Randall-Selitto 3 h) (rat [7]; UD50 48 h)	Gastric tolerability UD50 fasted 18 h (rat [7])	Gastric tolerability UD50 fasted 48 h (rat [7])	Carrageenin induced oedema (3 h) ED50 (rat [4]; normal rat, per os)	ED50 ([5]; 3 h, per os)	also measured
COc1ccc2c(c1)c(CC(=O)O)c(C)n2C(=O)c1ccc(Cl)cc1 [Indomethacin, 1-(p-chlorobenzoyl)-2-methyl-5-methoxy-indol-3-acetic acid, reference compound]	5.18	1.57	2.59	0.78	4.77	15.8	–	–	–	–	–	–	–	LD50 ([1]; per os (head: mg/kg/os), * = insufficient sample): 21 mg/kg; TD50 at 18 h ([2]; fasted rats, per os, 18 h, read-out: Gastric tolerability UD50 fasted 18 h): 6.9 mg/kg; TD50 at 48 h ([2]; fasted rats, per os, 48 h, read-out: Gastric tolerability UD50 fasted 48 h): 3.45 mg/kg; ED50 (rat [4]): 4.4 mg/kg; ED50 ([5]; 3 h): 1.33 mg/kg
COc1ccc2c(c1)c(CC(=O)OCc1cnc(C)c3c1COC(C)(C)O3)c(C)n2C(=O)c1ccc(Cl)cc1 [compound ex. 1(b), Hydrochloride of the (3,4-isopropylidene)-pyridoxine ester of 1-(p-chlorobenzoyl)-2-methyl-5-methoxy-indol-3-acetic acid]	–	–	–	–	8.39	31.9	85 mg/kg	12.59	8.45	33.50	22.50	10.13 mg/kg/os	–	Tolerability index UD50 (18 h)/ED50 (carrageenin 3 h) (rat [7]; UD50 18 h, carrageenin 3 h): 3.30; Tolerability index UD50 (48 h)/ED50 (carrageenin 3 h) (rat [7]; UD50 48 h, carrageenin 3 h): 2.22; Randall-Selitto (3 h) ED50 ([5]; 3 h, per os, 180 min): 2.66 mg/kg/os; solubility in cold chloroform ([8]; cold chloroform): soluble; solubility in hot N,N'-dimethylformamide ([8]; hot N,N'-dimethylformamide): poorly soluble; solubility in hot ethanol ([8]; hot ethanol): soluble; solubility in water ([8]; water): insoluble
COc1ccc2c(c1)c(CC(=O)OCc1cnc(C)c3c1COC(C)(C)O3)c(C)n2C(=O)c1ccc(Cl)cc1 [compound ex. 1(c), (3,4-isopropylidene)-pyridoxine ester of 1-(p-chlorobenzoyl)-2-methyl-5-methoxy-indol-3-acetic acid]	–	5.75	–	3.8	–	–	> 200 mg/kg	78.51	51.85	212.00	140.00	36.83 mg/kg/os	2.7 mg/kg	–
COc1ccc2c(c1)c(CC(=O)OCc1cnc(C)c(O)c1CO)c(C)n2C(=O)c1ccc(Cl)cc1 [compound ex. 2, Pyridoxine ester of 1-(p-chlorobenzoyl)-2-methyl-5-methoxy-indol-3-acetic acid]	157	6.97	84.6	3.75	–	–	–	–	–	–	–	–	3.37 mg/kg	mortality ([1]; 819 mg/kg, read-out: LD50, rat line: percent at 819 mg/kg): 62.5%; TD50 at 18 h ([2]; Gastric tolerability UD50 fasted 18 h): 530 mg/kg; TD50 at 48 h ([2]; Gastric tolerability UD50 fasted 48 h): 285 mg/kg; ED50 (rat [4]; normal rat, per os): 76 mg/kg
